pIC50: −log10 of the molar value.
Key:
[1] = target: Rho-associated protein kinase 2 (Homo sapiens, UniProt O75116)
[2] = target: Rho-associated protein kinase 1 (Homo sapiens, UniProt Q13464)
Chain of Rho-associated protein kinase 1 (Q13464 whole entry): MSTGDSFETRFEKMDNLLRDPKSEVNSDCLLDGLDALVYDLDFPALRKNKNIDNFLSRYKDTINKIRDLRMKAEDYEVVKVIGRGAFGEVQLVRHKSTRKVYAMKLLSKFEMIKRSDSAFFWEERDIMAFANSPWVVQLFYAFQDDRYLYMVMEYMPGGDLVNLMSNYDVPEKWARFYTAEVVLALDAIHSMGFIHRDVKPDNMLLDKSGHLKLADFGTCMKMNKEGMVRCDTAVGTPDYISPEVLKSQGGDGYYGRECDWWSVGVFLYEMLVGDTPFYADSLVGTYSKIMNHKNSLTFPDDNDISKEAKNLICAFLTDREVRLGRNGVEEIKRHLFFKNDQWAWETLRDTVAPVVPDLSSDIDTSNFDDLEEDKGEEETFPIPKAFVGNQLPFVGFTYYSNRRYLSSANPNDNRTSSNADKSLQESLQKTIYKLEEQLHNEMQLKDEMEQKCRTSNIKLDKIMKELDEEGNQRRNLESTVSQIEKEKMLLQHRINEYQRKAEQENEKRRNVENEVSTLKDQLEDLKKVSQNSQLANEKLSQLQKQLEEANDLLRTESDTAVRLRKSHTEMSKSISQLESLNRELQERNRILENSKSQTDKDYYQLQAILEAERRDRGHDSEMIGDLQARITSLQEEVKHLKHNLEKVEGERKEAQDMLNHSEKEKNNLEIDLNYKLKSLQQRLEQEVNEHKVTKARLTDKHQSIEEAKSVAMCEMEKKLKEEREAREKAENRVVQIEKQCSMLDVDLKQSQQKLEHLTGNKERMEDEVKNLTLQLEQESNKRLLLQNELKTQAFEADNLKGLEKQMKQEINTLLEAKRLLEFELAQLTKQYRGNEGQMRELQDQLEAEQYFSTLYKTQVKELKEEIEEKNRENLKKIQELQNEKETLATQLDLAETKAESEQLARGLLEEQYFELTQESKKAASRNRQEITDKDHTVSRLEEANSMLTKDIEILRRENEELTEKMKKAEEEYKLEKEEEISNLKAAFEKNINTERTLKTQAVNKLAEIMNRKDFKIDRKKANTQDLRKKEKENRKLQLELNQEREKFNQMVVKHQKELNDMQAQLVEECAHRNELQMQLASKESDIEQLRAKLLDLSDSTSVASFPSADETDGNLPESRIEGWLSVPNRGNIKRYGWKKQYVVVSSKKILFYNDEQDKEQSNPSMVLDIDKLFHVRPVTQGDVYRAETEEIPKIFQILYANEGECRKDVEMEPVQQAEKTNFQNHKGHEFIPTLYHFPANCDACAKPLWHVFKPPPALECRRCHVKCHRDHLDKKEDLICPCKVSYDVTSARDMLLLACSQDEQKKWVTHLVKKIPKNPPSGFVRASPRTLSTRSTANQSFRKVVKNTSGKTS

Chain of Rho-associated protein kinase 2 (O75116 whole entry): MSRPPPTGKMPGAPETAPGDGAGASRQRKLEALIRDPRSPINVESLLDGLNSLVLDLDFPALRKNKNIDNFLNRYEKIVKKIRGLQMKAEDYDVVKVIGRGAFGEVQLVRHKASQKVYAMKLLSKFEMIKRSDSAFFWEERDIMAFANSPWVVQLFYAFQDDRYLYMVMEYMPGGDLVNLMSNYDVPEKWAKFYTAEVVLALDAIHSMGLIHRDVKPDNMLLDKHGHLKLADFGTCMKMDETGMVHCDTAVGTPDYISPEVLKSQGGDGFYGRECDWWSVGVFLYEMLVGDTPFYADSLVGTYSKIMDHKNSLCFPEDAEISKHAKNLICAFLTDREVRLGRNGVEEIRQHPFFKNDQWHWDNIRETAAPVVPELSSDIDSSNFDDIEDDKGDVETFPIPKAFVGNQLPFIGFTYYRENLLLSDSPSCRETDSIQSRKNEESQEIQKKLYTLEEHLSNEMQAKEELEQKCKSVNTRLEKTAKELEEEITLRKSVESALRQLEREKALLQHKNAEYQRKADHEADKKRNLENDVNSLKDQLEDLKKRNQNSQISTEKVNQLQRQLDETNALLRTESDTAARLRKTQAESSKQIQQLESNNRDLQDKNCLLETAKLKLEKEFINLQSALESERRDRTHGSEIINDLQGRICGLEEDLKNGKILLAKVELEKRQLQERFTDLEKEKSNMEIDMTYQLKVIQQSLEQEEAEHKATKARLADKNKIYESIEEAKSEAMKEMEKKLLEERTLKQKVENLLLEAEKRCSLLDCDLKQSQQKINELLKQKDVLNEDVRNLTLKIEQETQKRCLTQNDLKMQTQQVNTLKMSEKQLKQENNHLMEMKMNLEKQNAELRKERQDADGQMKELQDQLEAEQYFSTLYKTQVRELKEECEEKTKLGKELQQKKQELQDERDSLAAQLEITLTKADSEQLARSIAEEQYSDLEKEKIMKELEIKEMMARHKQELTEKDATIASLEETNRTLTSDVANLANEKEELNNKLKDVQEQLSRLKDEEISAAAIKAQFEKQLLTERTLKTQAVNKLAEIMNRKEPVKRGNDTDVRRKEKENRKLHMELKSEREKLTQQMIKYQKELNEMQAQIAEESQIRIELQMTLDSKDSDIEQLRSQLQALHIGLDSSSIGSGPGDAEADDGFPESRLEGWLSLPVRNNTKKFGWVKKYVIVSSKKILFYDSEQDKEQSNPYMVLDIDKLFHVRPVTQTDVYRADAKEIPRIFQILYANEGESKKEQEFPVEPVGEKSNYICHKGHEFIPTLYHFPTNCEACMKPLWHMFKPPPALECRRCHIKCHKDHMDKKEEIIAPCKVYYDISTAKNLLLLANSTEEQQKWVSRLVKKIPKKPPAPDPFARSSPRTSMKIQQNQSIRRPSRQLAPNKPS

Row | Structure (SMILES) | pIC50 [1] | pIC50 [2]
1 | C[C@H]1CNCCCN1S(=O)(=O)c1cccc2cncc(F)c12 | 7.70 | 
2 | N[C@@H](COc1ccc2c(c1)OCc1cnccc1-2)Cc1ccccc1 |  | 7.15
3 | N[C@H](Cc1ccccc1)C(=O)Nc1ccc2c(c1)OCc1cnccc1-2 |  | 7.72
4 | N[C@@H](C(=O)Nc1ccc2c(c1)OCc1cnccc1-2)c1ccccc1 |  | 7.80
5 | COc1cccc([C@@H](C)NC(=O)c2ccc3c(c2)C(C2CC2)Oc2cnccc2-3)c1 (some centres not stated) |  | 8.39
6 | COc1cccc(C(C)NC(=O)c2ccc3c(c2)OCc2cnccc2-3)n1 (configuration not stated) |  | 7.57
7 | C[C@@H](NC(=O)c1ccc2c(c1)OCc1cnccc1-2)c1ccccc1 |  | 7.74
8 | O=C(Cc1ccccc1)Nc1ccc2c(c1)OCc1cnccc1-2 |  | 6.85
9 | COc1cccc([C@@H](C)NC(=O)c2ccc3c(c2)C(C)Oc2cnccc2-3)c1 (some centres not stated) |  | 9.31
10 | COc1cccc([C@@H](C)NC(=O)c2ccc3c(c2)COc2cnc(N)cc2-3)c1 |  | 6.77
11 | COc1cccc([C@@H](C)NC(=O)c2ccc3c(c2)COc2cncnc2-3)c1 |  | 7.42
12 | CCC1Oc2cnccc2-c2ccc(C(=O)N[C@H](C)c3cccc(OC)c3)cc21 (mixture of isomers) |  | 9.20
13 | CCN1CCC[C@H]1CNC(=O)c1cccc(CNC(=O)c2ccc3c(c2)C(C)Oc2cnccc2-3)c1 (mixture of isomers) |  | 8.92
14 | COc1cccc([C@@H](C)NC(=O)c2ccc3c(c2)OC(C)c2cnccc2-3)c1 (mixture of isomers) |  | 7.82
15 | CCNC(=O)c1cc(CNC(=O)c2ccc3c(c2)C(CC)Oc2cnccc2-3)ccc1F (racemic) |  | 7.70
16 | CCC1Oc2cnccc2-c2ccc(C(=O)N[C@H](C)c3cccc(OC)c3)cc21 (stereo in doubt; 18) |  | 8.70
17 | CCC1Oc2cnccc2-c2ccc(C(=O)N[C@H](C)c3cccc(OC)c3)cc21 (stereo in doubt; 19) |  | 9.17

From ChEMBL document CHEMBL4665758, “Identification of 5H-chromeno[3,4-c]pyridine and 6H-isochromeno[3,4-c]pyridine derivatives as potent and selective dual ROCK inhibitors” (Bioorg Med Chem Lett, 2020)
